Patent US20050282863A1, “Novel-N substituted dihydrobenzothiepino, dihydrobenzoxepino and tetrahydro benzocyclohepta indoles as selective estrogen receptor modulators” (Council of Scientific & Industrial Research, priority 2004, published 2005)

Key:
adult female rats = assay: Post-coital antifertility efficacy in adult female rats; type: in vivo, rat; settings: daily dose 10 mg/kg, oral, days 1-7 post-coitum
Description: Adult female rats are caged overnight with coeval males of proven fertility and their vaginal smears are checked on the following morning. The day of presence of spermatozoa in the vaginal smear is taken as day 1 of pregnancy. Mated rats are isolated and randomized into various treatment groups and treated orally with the compound of invention or the vehicle on days 1-7/1-5 post-coitum. Animals of all the groups are autopsied on day 10 post-coitum and number and status of corpora lutea and implantation sites in each rat are recorded. The compounds of the present invention are considered active if there is complete absence of implantations in the uterus of all rats, in comparison to presence of normal implantations in the uterus of rats of vehicle control group.

estrogen receptors = biological target: T1, estrogen receptors (Rattus norvegicus, UniProt P06211); assay: Relative binding affinity (RBA) to estrogen receptors, 3H-estradiol competition assay; design: key: % of 17-beta-estradiol binding affinity (estradiol = 100); settings: relative to 17-beta-estradiol (=100, percentage value); rat uterine cytosol, 3H-E2, 18 hrs at 4° C.
T1 construct: Aliquot of uterine cytosol (200 μl; 2 uteri per ml) prepared in TEA buffer; from tissue; host or cells: uterine cytosol of immature estradiol-primed 20-21 day old rats
T1 sequence (P06211 1-600): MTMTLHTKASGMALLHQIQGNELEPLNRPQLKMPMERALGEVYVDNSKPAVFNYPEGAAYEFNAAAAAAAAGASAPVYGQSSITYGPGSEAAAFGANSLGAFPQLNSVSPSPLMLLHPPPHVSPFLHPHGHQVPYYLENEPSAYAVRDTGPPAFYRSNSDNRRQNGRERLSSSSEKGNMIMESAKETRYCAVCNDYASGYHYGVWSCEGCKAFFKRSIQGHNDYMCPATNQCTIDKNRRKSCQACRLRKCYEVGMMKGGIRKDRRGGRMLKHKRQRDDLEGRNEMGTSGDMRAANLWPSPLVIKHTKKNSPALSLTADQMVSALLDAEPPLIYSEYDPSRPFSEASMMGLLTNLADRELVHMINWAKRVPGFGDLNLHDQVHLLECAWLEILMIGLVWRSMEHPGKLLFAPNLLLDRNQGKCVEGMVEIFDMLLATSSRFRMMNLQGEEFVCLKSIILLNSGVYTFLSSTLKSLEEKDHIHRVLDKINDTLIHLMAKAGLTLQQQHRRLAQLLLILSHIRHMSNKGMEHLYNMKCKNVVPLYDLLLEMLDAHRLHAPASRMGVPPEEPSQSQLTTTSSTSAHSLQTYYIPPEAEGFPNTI
Procedure: The relative binding affinity (RBA) of the compounds for estrogen receptor is determined by competition assay, employing ^3H-estradiol (^3H-E2) as the radioligand. The test ligands and ^3H-E2 are incubated at 4° C. with cystol estrogen receptors obtained from uteri of immature estradoil-primed (1 μg/rat 24 h before autopsy) 20-21 days old rats. Aliquot of uterine cytosol (200 μl; 2 uteri per ml) prepared in TEA buffer (10 mM Tris, 1.5 mM EDTA, 0.02% sodium azide, pH 7.4) are incubated in duplicate with a fixed concentration of ^3H-E2 in the absence or presence of various concentrations of the competitor substance dissolved in 30 μl of the TEA buffer containing DMF as co-solvent (final concentration of DMF in the incubation mixture never exceeded 5%) for 18 hrs at 4° C. At the end of this period, dextran coated charcoal (5% Norit 0.5% dextran) suspension in 100 μl of TEA buffer is added to each tube, briefly vortexed and allowed to stand for 15 minutes at 4° C. The mixture is centrifuged at 800 g for 10 minutes and the supernatants counted for radioactivity in 10 ml of a dioxane-based scintillation fluid. RBA of the text compound is computed from a graph plotted between percent bound radioactivity verses log concentration of the test substance. […] This when multiplied with 100 gives the percentage value designated as RBA.

[1] = system: chick fetal bones in culture; assay: Inhibition in PTH-induced resorption of 45Ca from chick fetal bones in culture (antiresorptive activity in vitro); type: cell-based; settings: Gallus gallus, 96 h, 100 μM; PTH-induced 45Ca resorption, 96 h culture; read-out: T/C ratio
Procedure: 5 μl of each concentration are used for evaluation of antiresorptive activity in vitro. In control experiments, 5 μl of appropriate solvent is used in lieu of the test compound. Femur bones are isolated from chick embryos on day 11 post-ovulation. The adhering soft connective tissue is completely removed. Each femur bone is then placed in a drop of phosphate buffered saline (PBS) and is transferred to BGJb culture medium containing ^45CaCl2 and incubated for 2 h. Labeled femur bones are washed 2-3 times with PBS and transferred to BGJb medium containing parathyroid hormone and cultured for 96 h in the presence or absence of the compound of invention or the vehicle in BGJb medium. Contralateral femur of each fetus serves as corresponding control. Culture medium with the respective treatment in each well is changed after 48 h. On termination of the culture at 96 h, bones are transferred to 0.1 N HCl for 24 h. Radioactivity due to ^45Ca in the spent medium collected at 48 and 96 h of culture and HCl extract at 96 h of culture is quantified by Liquid Scintillation Spectrophotometer in 10 ml of the scintillation fluid. Bone resorbing activity is expressed as percentage of ^45Ca released into the culture medium and the effect of the compound of invention as percent of the corresponding contra-lateral control or T/C ratio as shown below: [formula]
Appropriate solvents are selected from solvents like water, physiological saline, phosphate buffered saline, phosphate buffer, DMSO alone or in a suitable combination thereof.

[2] = system: immature ovariectomized rats; assay: Estrogen agonistic activity: increase in uterine weight in immature ovariectomized rats; type: in vivo, rat; settings: Rattus norvegicus, 72 h, daily dose 10 mg/kg, 3 days; percent of ovariectomized + vehicle group
Procedure: Twenty-one-day-old immature female rats are bilaterally ovariectomized under light ether anaesthesia and, after post-operative rest for 7 days, are randomized into different treatment groups. Each rat receives the compound of the invention once daily for 3 consecutive days on days 28-30 of age. A separate group of animals receiving only the vehicle for similar duration serves as control. A autopsy 24 h after the last treatment on day 31 of age, vaginal smear of each rat is taken and uterus is carefully exised, gently blotted, weighed and fixed for histology and histomorphometry using image analysis. Premature opening of vagina, cornification of vaginal epitelium, increase in uterine fresh weight, total uterine and endometrial area and uterine luminal epithelial cell height are taken as parameters for evaluation of estrogen agonistic activity in comparision to rats of vehicle control group.

[3] = system: immature ovariectomized rats; assay: Estrogen antagonistic activity: inhibition in 17α-ethynylestradiol induced uterine weight gain in immature ovariectomized rats; type: in vivo, rat; settings: Rattus norvegicus, 72 h; daily dose 10 mg/kg with 0.02 mg/kg 17-alfa-ethynylestradiol, 3 days; read-out: Percent inhibition in 17α-ethynylestradiol induced uterine weight gain
Procedure: Twenty-one-day-old immature female rats are bilaterally ovariectomized under light ether anaesthesia and after post-operative rest for 7 days, are randomized into different treatment groups. Each rat receives the compounds of the invention and 0.02 mg/kg dose of 17-alfa-ethynylestradiol in 10% ethanol-distilled water once daily for 3 consecutive days on days 28-30 of age. A separate group of animals receiving only 17-alfa-ethynylestradiol (0.02 mg/kg) in 10% ethanol-distilled water for similar duration are used for comparison. At autopsy on day 31 of age, vaginal smear of each rat is taken and uterus is carefully excised, gently blotted, weighed and fixed for histology and histomorphometry using image analysis. Inhibition in 17-alfa-ethynylestradiol-induced premature opening of vagina, cornification of vaginal epithelium, increase in uterine fresh weight, total uterine and endometrial area and uterine luminal epithelial cell height are taken as parameters for evaluation of estrogen antagonistic activity.

Structure (SMILES) | melting point [°C] | RBA (estrogen receptors) | % Efficacy (adult female rats) | activity at 100 µM [1] [%] | change in vivo at 10 mg/kg [2] [%] | inhibition in vivo at 10 mg/kg/day [3] [%]
c1ccc2c(c1)SCCc1c-2n(CCN2CCCCC2)c2ccccc12 [Example number 5, 12-[2-(Piperidine-1-yl)ethyl]-6,7-dihydro-12H-benzothiepino [5,4-b]indole] | 118 | – | Inactive | – | – | –
Oc1ccc2c(c1)c1c(n2CCCCCN2CCCC2)-c2ccccc2SCC1 [Example number 30, 9-Hydroxy-12-[5-(pyrrolidine-1-yl)pentyl]-6,7-dihydro-12H-benzothiepino [5,4-b]indole] | 217 to 219 | <0.001 | Inactive | – | – | –
CCCCN(C)CCCCCn1c2c(c3cc(O)ccc31)CCSc1cc(O)ccc1-2 [Example number 37] | 134 to 136 | 0.36 | – | – | – | –

Second part, led by results:

melting point [°C] | RBA (estrogen receptors) | Structure (SMILES) | % Efficacy (adult female rats) | activity at 100 µM [1] [%] | change in vivo at 10 mg/kg [2] [%] | inhibition in vivo at 10 mg/kg/day [3] [%]
70 to 71 | – | c1ccc2c(c1)SCCc1c-2n(Cc2ccc(OCCCN3CCCCC3)cc2)c2ccccc12 [Example number 41, 12-[4-(3-Piperidin-1-yl-propyloxy)benzyl]-6,7-dihydro-12H-benzothiepino [5,4-b]indole] | Inactive | 108 | 42.9 | 6.41
103 | – | c1ccc2c(c1)OCCc1c-2n(CCN2CCCCC2)c2ccccc12 [Example number 45, 12-[2-(Piperidine-1-yl)ethyl]-6,7-dihydro-12H-benzoxepino[5,4-b]indole] | Inactive | – | – | –
65 to 66 | – | c1ccc2c(c1)OCCc1c-2n(CCCN2CCCCC2)c2ccccc12 [Example number 47, 12-[3-(Piperidine-1-yl)propyl]-6,7-dihydro-12H-benzoxepino[5,4-b]indole] | Inactive | – | 8.31 | 17.2
129 to 130 | – | c1ccc2c(c1)OCCc1c-2n(Cc2ccc(OCCCN3CCCCC3)cc2)c2ccccc12 [Example number 58, 12-[4-(3-Piperidin-1-yl-propyloxy)benzyl]-6,7-dihydro-12H-benzoxepino[5,4-b]indole] | Inactive | 98 | 7.85 | 11.4
